Laboratory results taken from patent US11253479B2, “Hydrobromide salt of an anti-HIV compound” (Janssen Sciences Ireland UC, priority 2006, dated 2022).

What was measured:
[1] = Stability of salts of compound (A) (decomposition to compound (A) and free acid); assay type: physicochemical; conditions: partial or complete decomposition to compound (A) and the free acid
Text: Contrary to a number of other salts of compound (A) that are unstable, the compound of formula (I) is a stable salt.

[2] = In-vivo study of bioavailability in dogs of capsules filled with salts
Method: Four male dogs were used per tested formulation. The animals were randomized over the test groups by a computer-generated random algorithm according to body weight, with all animals within ±20% of the sex mean. A health inspection was performed prior to commencement of treatment to ensure that the animals were in a good state of health. The dogs were subjected to an acclimatization period of at least 5 days before the start of treatment under laboratory conditions. A controlled environment was maintained in the room. The animals were dosed once orally with the formulations of example 1, and blood was collected from all animals under light ether anaesthesia at regular intervals for a period of 12, 24 or 48 hours after dosing.
The mean pharmacokinetic parameters relating to the mean plasma concentration with time of each test formulation are shown in Table 3. The standard deviation, where calculated, is shown between brackets.

[3] = male dogs, dosed once orally, capsules, dose normalized to 1 mg/kg, mean

- stability of the salt [1]: stable
- Tmax ([2]; dog, plasma, po, 118.6 mg salt per capsule, male dogs, dosed once orally, capsules of example 1, mean): 4.5 h
- Cmax ([2]; dog, plasma, po, 118.6 mg salt per capsule, male dogs, dosed once orally, capsules, without dose normalization, mean): 0.365 µg/mL
- AUC(0-t) ([2]; dog, plasma, po, 118.6 mg salt per capsule, male dogs, dosed once orally, capsules, without dose normalization, mean, read-out: AUC0-last (without dose normalization)): 5.86 µg·h/mL
- bioavailability in dogs compared with other salts (Cmax, AUC0-last) ([2]; dogs, oral capsules): improved bioavailability
- tlast ([2]; male dogs, dosed once orally, capsules of example 1, mean): 48 h
- AUC0-last (dose normalized to 1 mg/kg) [2, 3]: 516.1 ng·h/mL
- Cmax (dose normalized to 1 mg/kg) [2, 3]: 0.03173 µg/mL
SMILES: Br.Cc1cc(C#N)cc(C)c1Oc1nc(Nc2ccc(C#N)cc2)nc(N)c1Br [HBr salt, 4-[[4-amino-5-bromo-6-(4-cyano-2,6-dimethylphenyloxy)-2-pyrimidinyl]amino]benzonitrile hydrobromide]
